# Experimental data from ChEMBL document CHEMBL1909046, “DrugMatrix in vitro pharmacology data”.
# System: not listed separately
# Assay: DRUGMATRIX: GABAA, Chloride Channel, TBOB radioligand binding (ligand: [3H] TBOB)
# Assay type: cell membranes, Rattus norvegicus, Wistar, Cerebral cortex, Membrane
# Details: Not Active = under 50% inhibition at 10 µM
SMILES,IC50,Ki
COc1ccc(C(=O)N2CCCC2=O)cc1,Not Active,Not Active
NCCCC(O)(P(=O)(O)O)P(=O)(O)O [ALENDRONIC ACID],Not Active,Not Active
Cn1c(=O)c2[nH]cnc2n(C)c1=O.Cn1c(=O)c2[nH]cnc2n(C)c1=O.NCCN [AMINOPHYLLINE],Not Active,Not Active
CCC1(CCC(C)C)C(=O)NC(=O)NC1=O [AMOBARBITAL],Not Active,Not Active
CC1(C)S[C@@H]2[C@H](NC(=O)[C@H](N)c3ccccc3)C(=O)N2[C@H]1C(=O)O [AMPICILLIN],Not Active,Not Active
O=C1O[C@H]([C@@H](O)CO)C(O)=C1O [ASCORBIC ACID],Not Active,Not Active
CN1[C@@H]2CC[C@H]1C[C@@H](OC(=O)C(CO)c1ccccc1)C2 (stereo partly specified) [ATROPINE],Not Active,Not Active
Brc1c(NC2=NCCN2)ccc2nccnc12 [BRIMONIDINE],Not Active,Not Active
CN(C)[C@@H]1C(O)=C(C(N)=O)C(=O)[C@@]2(O)C(O)=C3C(=O)c4c(O)ccc(Cl)c4[C@@](C)(O)[C@H]3C[C@@H]12 [CHLORTETRACYCLINE],Not Active,Not Active
C[C@@H]1C[C@H]2[C@@H]3CCC4=CC(=O)C=C[C@]4(C)[C@@]3(F)[C@@H](O)C[C@]2(C)[C@H]1C(=O)CO [DESOXIMETASONE],Not Active,Not Active

# Target: T1, C-X-C chemokine receptor type 2 (Homo sapiens, UniProt P25025); further: in other assays of this panel Not Active means under 50% inhibition at 10 µM
# T1 sequence (P25025 whole entry): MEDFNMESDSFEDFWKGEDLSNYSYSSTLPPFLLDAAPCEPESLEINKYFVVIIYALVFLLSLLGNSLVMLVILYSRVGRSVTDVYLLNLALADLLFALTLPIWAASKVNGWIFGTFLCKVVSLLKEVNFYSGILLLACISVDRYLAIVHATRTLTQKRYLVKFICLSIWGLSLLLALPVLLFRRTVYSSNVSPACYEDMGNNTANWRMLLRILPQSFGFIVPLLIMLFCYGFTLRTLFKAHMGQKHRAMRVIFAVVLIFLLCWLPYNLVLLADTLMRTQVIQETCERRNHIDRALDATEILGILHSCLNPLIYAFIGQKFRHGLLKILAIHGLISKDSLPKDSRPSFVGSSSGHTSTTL
# Assay type: cell membranes, Membrane
# Details: cho-k1
row,SMILES,IC50
1,COc1ccc(C(=O)N2CCCC2=O)cc1,Not Active
2,NCCCC(O)(P(=O)(O)O)P(=O)(O)O [ALENDRONIC ACID],Not Active
3,Cn1c(=O)c2[nH]cnc2n(C)c1=O.Cn1c(=O)c2[nH]cnc2n(C)c1=O.NCCN [AMINOPHYLLINE],Not Active
4,CCC1(CCC(C)C)C(=O)NC(=O)NC1=O [AMOBARBITAL],Not Active
5,CC1(C)S[C@@H]2[C@H](NC(=O)[C@H](N)c3ccccc3)C(=O)N2[C@H]1C(=O)O [AMPICILLIN],Not Active
6,O=C1O[C@H]([C@@H](O)CO)C(O)=C1O [ASCORBIC ACID],Not Active
7,CN1[C@@H]2CC[C@H]1C[C@@H](OC(=O)C(CO)c1ccccc1)C2 (stereo partly specified) [ATROPINE],Not Active
8,Brc1c(NC2=NCCN2)ccc2nccnc12 [BRIMONIDINE],Not Active
9,CN(C)[C@@H]1C(O)=C(C(N)=O)C(=O)[C@@]2(O)C(O)=C3C(=O)c4c(O)ccc(Cl)c4[C@@](C)(O)[C@H]3C[C@@H]12 [CHLORTETRACYCLINE],Not Active
10,C[C@@H]1C[C@H]2[C@@H]3CCC4=CC(=O)C=C[C@]4(C)[C@@]3(F)[C@@H](O)C[C@]2(C)[C@H]1C(=O)CO [DESOXIMETASONE],Not Active

# Target: Cytochrome P450 3A4 (Homo sapiens, UniProt P08684); further: in other assays of this panel Not Active means under 50% inhibition at 10 µM
# Details: bti-tn-5b1-4
# Cytochrome P450 3A4, sequence (P08684 whole entry): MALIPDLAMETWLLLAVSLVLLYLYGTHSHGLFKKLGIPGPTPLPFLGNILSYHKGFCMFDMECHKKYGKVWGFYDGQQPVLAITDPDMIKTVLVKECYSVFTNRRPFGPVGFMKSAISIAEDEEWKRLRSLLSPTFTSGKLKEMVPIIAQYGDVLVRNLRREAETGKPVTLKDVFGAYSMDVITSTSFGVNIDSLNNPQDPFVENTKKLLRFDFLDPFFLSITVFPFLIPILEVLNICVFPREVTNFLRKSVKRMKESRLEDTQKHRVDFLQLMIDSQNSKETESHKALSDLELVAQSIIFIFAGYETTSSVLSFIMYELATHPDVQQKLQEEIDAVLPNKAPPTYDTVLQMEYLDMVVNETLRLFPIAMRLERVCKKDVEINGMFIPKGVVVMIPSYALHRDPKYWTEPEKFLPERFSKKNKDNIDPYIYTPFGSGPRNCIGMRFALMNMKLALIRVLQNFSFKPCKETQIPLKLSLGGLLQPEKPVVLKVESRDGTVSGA
SMILES,IC50,Ki
COc1ccc(C(=O)N2CCCC2=O)cc1,Not Active,Not Active
Cn1c(=O)c2[nH]cnc2n(C)c1=O.Cn1c(=O)c2[nH]cnc2n(C)c1=O.NCCN [AMINOPHYLLINE],Not Active,Not Active
CCC1(CCC(C)C)C(=O)NC(=O)NC1=O [AMOBARBITAL],Not Active,Not Active
CC1(C)S[C@@H]2[C@H](NC(=O)[C@H](N)c3ccccc3)C(=O)N2[C@H]1C(=O)O [AMPICILLIN],Not Active,Not Active
O=C1O[C@H]([C@@H](O)CO)C(O)=C1O [ASCORBIC ACID],Not Active,Not Active
Brc1c(NC2=NCCN2)ccc2nccnc12 [BRIMONIDINE],Not Active,Not Active
CN(C)[C@@H]1C(O)=C(C(N)=O)C(=O)[C@@]2(O)C(O)=C3C(=O)c4c(O)ccc(Cl)c4[C@@](C)(O)[C@H]3C[C@@H]12 [CHLORTETRACYCLINE],Not Active,Not Active
C[C@@H]1C[C@H]2[C@@H]3CCC4=CC(=O)C=C[C@]4(C)[C@@]3(F)[C@@H](O)C[C@]2(C)[C@H]1C(=O)CO [DESOXIMETASONE],Not Active,Not Active

# Target: 5-hydroxytryptamine receptor 6 (Homo sapiens, UniProt P50406); further: in other assays of this panel Not Active means under 50% inhibition at 10 µM
# Assay type: cell membranes, HeLa, Membrane
# Details: hela
# 5-hydroxytryptamine receptor 6, sequence (P50406 whole entry): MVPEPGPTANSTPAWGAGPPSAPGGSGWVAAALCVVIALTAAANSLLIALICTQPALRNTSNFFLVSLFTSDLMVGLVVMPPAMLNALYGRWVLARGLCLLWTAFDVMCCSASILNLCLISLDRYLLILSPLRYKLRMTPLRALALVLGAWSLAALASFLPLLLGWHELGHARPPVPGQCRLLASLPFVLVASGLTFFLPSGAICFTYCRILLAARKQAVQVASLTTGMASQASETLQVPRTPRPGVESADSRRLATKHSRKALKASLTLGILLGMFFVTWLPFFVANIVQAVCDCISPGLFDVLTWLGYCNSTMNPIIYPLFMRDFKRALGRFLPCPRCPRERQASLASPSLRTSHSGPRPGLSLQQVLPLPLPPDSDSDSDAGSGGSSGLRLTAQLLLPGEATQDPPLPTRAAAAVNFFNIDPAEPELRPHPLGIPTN
row,SMILES,IC50
1,COc1ccc(C(=O)N2CCCC2=O)cc1,Not Active
2,NCCCC(O)(P(=O)(O)O)P(=O)(O)O [ALENDRONIC ACID],Not Active
3,Cn1c(=O)c2[nH]cnc2n(C)c1=O.Cn1c(=O)c2[nH]cnc2n(C)c1=O.NCCN [AMINOPHYLLINE],Not Active
4,CCC1(CCC(C)C)C(=O)NC(=O)NC1=O [AMOBARBITAL],Not Active
5,CC1(C)S[C@@H]2[C@H](NC(=O)[C@H](N)c3ccccc3)C(=O)N2[C@H]1C(=O)O [AMPICILLIN],Not Active
6,O=C1O[C@H]([C@@H](O)CO)C(O)=C1O [ASCORBIC ACID],Not Active
7,CN1[C@@H]2CC[C@H]1C[C@@H](OC(=O)C(CO)c1ccccc1)C2 (stereo partly specified) [ATROPINE],Not Active
8,Brc1c(NC2=NCCN2)ccc2nccnc12 [BRIMONIDINE],Not Active
9,CN(C)[C@@H]1C(O)=C(C(N)=O)C(=O)[C@@]2(O)C(O)=C3C(=O)c4c(O)ccc(Cl)c4[C@@](C)(O)[C@H]3C[C@@H]12 [CHLORTETRACYCLINE],Not Active
10,C[C@@H]1C[C@H]2[C@@H]3CCC4=CC(=O)C=C[C@]4(C)[C@@]3(F)[C@@H](O)C[C@]2(C)[C@H]1C(=O)CO [DESOXIMETASONE],Not Active

# System: not listed separately
# Assay: DRUGMATRIX: Platelet-Derived Growth Factor (PDGF) radioligand binding (ligand: [125I] PDGF)
# Assay type: cell-based
# Details: nih3t3; Not Active = under 50% inhibition at 10 µM
SMILES,IC50,Ki
COc1ccc(C(=O)N2CCCC2=O)cc1,Not Active,Not Active
NCCCC(O)(P(=O)(O)O)P(=O)(O)O [ALENDRONIC ACID],Not Active,Not Active
Cn1c(=O)c2[nH]cnc2n(C)c1=O.Cn1c(=O)c2[nH]cnc2n(C)c1=O.NCCN [AMINOPHYLLINE],Not Active,Not Active
CCC1(CCC(C)C)C(=O)NC(=O)NC1=O [AMOBARBITAL],Not Active,Not Active
CC1(C)S[C@@H]2[C@H](NC(=O)[C@H](N)c3ccccc3)C(=O)N2[C@H]1C(=O)O [AMPICILLIN],Not Active,Not Active
O=C1O[C@H]([C@@H](O)CO)C(O)=C1O [ASCORBIC ACID],Not Active,Not Active
CN1[C@@H]2CC[C@H]1C[C@@H](OC(=O)C(CO)c1ccccc1)C2 (stereo partly specified) [ATROPINE],Not Active,Not Active
Brc1c(NC2=NCCN2)ccc2nccnc12 [BRIMONIDINE],Not Active,Not Active
CN(C)[C@@H]1C(O)=C(C(N)=O)C(=O)[C@@]2(O)C(O)=C3C(=O)c4c(O)ccc(Cl)c4[C@@](C)(O)[C@H]3C[C@@H]12 [CHLORTETRACYCLINE],Not Active,Not Active
C[C@@H]1C[C@H]2[C@@H]3CCC4=CC(=O)C=C[C@]4(C)[C@@]3(F)[C@@H](O)C[C@]2(C)[C@H]1C(=O)CO [DESOXIMETASONE],Not Active,Not Active

# Target: Cannabinoid receptor 1 (Homo sapiens, UniProt P21554); further: in other assays of this panel Not Active means under 50% inhibition at 10 µM
# Assay type: cell membranes, Chem-1, Membrane
# Details: chem-1
# Cannabinoid receptor 1, sequence (P21554 whole entry): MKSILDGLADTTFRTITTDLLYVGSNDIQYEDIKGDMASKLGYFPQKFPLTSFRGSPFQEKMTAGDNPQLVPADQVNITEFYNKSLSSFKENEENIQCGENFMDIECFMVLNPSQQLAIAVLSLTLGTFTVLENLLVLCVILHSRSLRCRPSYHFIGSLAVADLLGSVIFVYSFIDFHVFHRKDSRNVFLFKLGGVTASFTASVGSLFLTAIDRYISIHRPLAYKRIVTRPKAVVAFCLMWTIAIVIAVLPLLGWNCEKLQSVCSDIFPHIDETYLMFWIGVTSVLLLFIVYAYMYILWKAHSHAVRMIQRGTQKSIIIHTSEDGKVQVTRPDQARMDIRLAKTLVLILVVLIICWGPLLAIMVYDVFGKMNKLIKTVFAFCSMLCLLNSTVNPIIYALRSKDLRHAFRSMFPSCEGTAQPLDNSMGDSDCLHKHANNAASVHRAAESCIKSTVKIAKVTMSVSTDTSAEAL
row,SMILES,IC50
1,COc1ccc(C(=O)N2CCCC2=O)cc1,Not Active
2,NCCCC(O)(P(=O)(O)O)P(=O)(O)O [ALENDRONIC ACID],Not Active
3,Cn1c(=O)c2[nH]cnc2n(C)c1=O.Cn1c(=O)c2[nH]cnc2n(C)c1=O.NCCN [AMINOPHYLLINE],Not Active
4,CCC1(CCC(C)C)C(=O)NC(=O)NC1=O [AMOBARBITAL],Not Active
5,CC1(C)S[C@@H]2[C@H](NC(=O)[C@H](N)c3ccccc3)C(=O)N2[C@H]1C(=O)O [AMPICILLIN],Not Active
6,O=C1O[C@H]([C@@H](O)CO)C(O)=C1O [ASCORBIC ACID],Not Active
7,CN1[C@@H]2CC[C@H]1C[C@@H](OC(=O)C(CO)c1ccccc1)C2 (stereo partly specified) [ATROPINE],Not Active
8,Brc1c(NC2=NCCN2)ccc2nccnc12 [BRIMONIDINE],Not Active
9,CN(C)[C@@H]1C(O)=C(C(N)=O)C(=O)[C@@]2(O)C(O)=C3C(=O)c4c(O)ccc(Cl)c4[C@@](C)(O)[C@H]3C[C@@H]12 [CHLORTETRACYCLINE],Not Active
10,C[C@@H]1C[C@H]2[C@@H]3CCC4=CC(=O)C=C[C@]4(C)[C@@]3(F)[C@@H](O)C[C@]2(C)[C@H]1C(=O)CO [DESOXIMETASONE],Not Active

# Target: Beta-3 adrenergic receptor (Homo sapiens, UniProt P13945)
# Assay: DRUGMATRIX: Adrenergic beta3 radioligand binding (ligand: [125I] Cyanopindolol)
# Assay type: cell membranes, HEK293, Membrane
# Details: hek293; Not Active = under 50% inhibition at 10 µM
# Beta-3 adrenergic receptor, sequence (P13945 whole entry): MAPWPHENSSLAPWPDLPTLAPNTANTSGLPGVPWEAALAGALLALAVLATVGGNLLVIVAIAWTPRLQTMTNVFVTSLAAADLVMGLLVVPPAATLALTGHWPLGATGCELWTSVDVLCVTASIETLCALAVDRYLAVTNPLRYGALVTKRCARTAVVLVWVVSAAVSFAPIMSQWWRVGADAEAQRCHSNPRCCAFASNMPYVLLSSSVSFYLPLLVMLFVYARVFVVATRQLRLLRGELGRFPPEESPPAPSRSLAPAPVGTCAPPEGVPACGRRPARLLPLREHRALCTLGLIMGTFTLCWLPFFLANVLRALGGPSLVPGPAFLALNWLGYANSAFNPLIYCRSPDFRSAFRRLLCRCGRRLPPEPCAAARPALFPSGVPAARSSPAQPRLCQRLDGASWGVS
row,SMILES,IC50
1,COc1ccc(C(=O)N2CCCC2=O)cc1,Not Active
2,NCCCC(O)(P(=O)(O)O)P(=O)(O)O [ALENDRONIC ACID],Not Active
3,Cn1c(=O)c2[nH]cnc2n(C)c1=O.Cn1c(=O)c2[nH]cnc2n(C)c1=O.NCCN [AMINOPHYLLINE],Not Active
4,CCC1(CCC(C)C)C(=O)NC(=O)NC1=O [AMOBARBITAL],Not Active
5,CC1(C)S[C@@H]2[C@H](NC(=O)[C@H](N)c3ccccc3)C(=O)N2[C@H]1C(=O)O [AMPICILLIN],Not Active
6,O=C1O[C@H]([C@@H](O)CO)C(O)=C1O [ASCORBIC ACID],Not Active
7,CN1[C@@H]2CC[C@H]1C[C@@H](OC(=O)C(CO)c1ccccc1)C2 (stereo partly specified) [ATROPINE],Not Active
8,Brc1c(NC2=NCCN2)ccc2nccnc12 [BRIMONIDINE],Not Active
9,CN(C)[C@@H]1C(O)=C(C(N)=O)C(=O)[C@@]2(O)C(O)=C3C(=O)c4c(O)ccc(Cl)c4[C@@](C)(O)[C@H]3C[C@@H]12 [CHLORTETRACYCLINE],Not Active
10,C[C@@H]1C[C@H]2[C@@H]3CCC4=CC(=O)C=C[C@]4(C)[C@@]3(F)[C@@H](O)C[C@]2(C)[C@H]1C(=O)CO [DESOXIMETASONE],Not Active
